Results as given in US20210038730A1, “PEPTIDE NANOFIBERS” (UNIVERSITY OF PORTSMOUTH HIGHER EDUCATION CORPORATION, priority 2018, published 2021).

How the values were obtained:
[1] = Isoelectric point by acid-base titration; format: physicochemical
Procedure: Both peptides were characterised by electrospray ionisation (positive/negative) mass spectrometry (MS), nuclear magnetic resonance (NMR), RP-HPLC, attenuated total reflectance Fourier-transformed infrared (ATR-FTIR) spectroscopy, thermogravimetric analysis (TGA) and differential scanning calorimetry (DSC). The isoelectric point of the peptides was also determined using an acid-base titration.

[2] = Critical aggregation concentration, pyrene assay; format: physicochemical; conditions: PBS pH 7.4, 37° C., 24 hours
Procedure: Critical aggregation concentration (CAC) of TPGnRH was determined using pyrene ^1-4 and thioflavin T ^5, 6. The peptide solutions (3.5-700 μM) were prepared in phosphate-buffered saline (PBS, 0.01 M, pH 7.4) either by a dilution of a stock solution at 700 μM or solutions prepared at the required concentration. In the pyrene assay, pyrene was dissolved in methanol at 250 μM, dispersed into a black 96-well plate, and methanol was evaporated overnight. TPGnRH solutions were added to pyrene and incubated at 37° C. for 24 hours under stirring. Fluorescence spectra was recorded λex at 334 nm. For the thioflavin T assay, peptide solutions were added to freshly prepared thioflavin Tat 50 μM. All peptide samples were incubated during 5 minutes at room temperature and fluorescence was measured at λex at 450 nm and λem at 482 nm.

[3] = Circular dichroism, temperature and dilution stability of nanofibers; format: physicochemical; conditions: CD, 15 to 50° C., dilutions 1:10-1:100
Procedure: Secondary structure was assessed using circular dichroism (CD). TPGnRH solutions (70 or 700 μM) were prepared in aqueous 0.9% sodium chloride and analysed at 20±0.1° C. using Applied Photophysics Pi180 spectropolarimeter (Surrey, UK). For the temperature-dependent studies, the peptide was incubated at a range of temperature (15 to 50° C.) and the spectra were collected at 5° C. intervals. To investigate the effect of dilution, peptide solutions were diluted in 0.9% (w/v) sodium chloride solution at 20° C. Data were collected every 1 nm over the wavelength range of 200-360 nm. X-ray diffraction (XRD) studies were carried out on stalks prepared by suspending drops of TPGnRH solutions (70 or 700 μM) between the ends of the wax-coated capillaries and allowing them to dry at room temperature. Stalks were vertically mounted onto a four-axis goniometer of a FR-E+X-Ray diffractomer (Rigaku, Sevenoaks, UK).

[4] = test system: rat red blood cells (RBCs); format: cell-based; conditions: 1 hour, 37° C., read-out: IC50 of haemolysis
Procedure: Fresh blood, obtained from adult male Wistar rats (250 to 300 g) (Bioresources Unit, School of Pharmacy and Biomedical Sciences, University of Portsmouth, Portsmouth, UK) was collected in sterile lithium heparin-coated tubes (170 I.U., Vacutainer, BD Bioscience, UK) and kept on ice. To isolate the rat red blood cells (RBCs), fresh blood was centrifuged at 2,000 g using Haraeus Multifuge […] (Thermo Scientific, UK) at 4° C. for 10 minutes. The supernatant was removed, and the final volume was raised to the whole blood volume with PBS (0.01 M, pH 7.4). RBCs were centrifuged at 2,000 g for 10 minutes and washed with PBS three times. After the washing steps, two cell suspensions were prepared: 4% (w/v) RBCs in PBS and 1% (v/v) Triton X-100 (i.e. 1 g of cells in 25 mL of PBS or 1% (v/v) Triton X-100). RBCs in PBS and in Triton X-100 were used as a negative and positive control, respectively. […] After incubation, the cells were centrifuged at 1,200 g using a Haraeus Multifuge […] (Thermo Scientific, UK) during 10 minutes. The supernatant (100 μL) was transferred to a 96-well plate, and absorbance was measured at 590 nm. Percentage of haemolysis was calculated using Equation 1: [formula] Abs Negative Control represents the absorbance of the RBCs in PBS and Abs Positive Control the absorbance of the RBCs in 1% (v/v) Triton X-100. A control for Cremophor EL and ethanol mixture was also included.

GnRH-R on U-87 MG cells = target: T1, GnRH-R on U-87 MG cells (Homo sapiens, UniProt P30968); test: SMFS blocking experiments with free GnRH-R ligands; format: binding
T1 construct: endogenous in cells; host or cells: U-87 MG
T1 sequence (P30968 1-328): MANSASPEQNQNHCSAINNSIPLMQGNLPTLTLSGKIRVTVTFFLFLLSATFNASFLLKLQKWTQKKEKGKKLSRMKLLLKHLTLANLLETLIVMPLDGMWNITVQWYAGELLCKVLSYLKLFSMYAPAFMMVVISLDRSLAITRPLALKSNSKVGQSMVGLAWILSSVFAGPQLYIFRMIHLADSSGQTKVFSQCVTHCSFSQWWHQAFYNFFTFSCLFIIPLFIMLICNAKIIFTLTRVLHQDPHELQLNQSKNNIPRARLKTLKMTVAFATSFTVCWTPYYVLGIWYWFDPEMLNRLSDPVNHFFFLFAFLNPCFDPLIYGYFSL
Procedure: Blocking experiments were performed with different GnRH-R ligands (anti-GnRH-R antibody, Glu-GnRH, goserelin acetate, and TPGnRH). U-87 MG cells were analysed with tips functionalised with TPGnRH nanofibers and then the free ligands were added at a final concentration of 1 μg mL^−1 (anti-GnRH-R antibody) or 50 μg mL^−1 (Glu-GnRH, goserelin acetate and TPGnRH). U-87 MG cells treated with ligands were incubated for, at least, one hour at room temperature, and then the same cells were analysed with the same TPGnRH-functionalised tip at the same location in the cell.

in vivo = conditions: male, BALB/c, mouse, iv, 35 mg/kg
Procedure: (§1) At 5 and 60 minutes, mice were killed and the blood and brain were harvested. Blood samples (0.5-0.7 mL per mouse) were collected into evacuated, sterile, spray coated with tripotassium ethylenediamine tetraacetic acid (3.6 mg), medical grade PET tubes. […] Brain was weighted and homogenised with ice-cold PBS (1×, 7.4) using a 3 mL glass homogeniser. Plasma (100 μL) and brain homogenate (˜800 μL) were extracted with equal volumes of ice-cold acetonitrile three times and samples were dried using a centrifugal concentrator (SPD1010 SpeedVac System, ThermoSavant, Renfrewshire, United Kingdom) under vacuum over 2 hours and 4 hours respectively. Samples were orbitally agitated using a SciQuip Microplate Shaker attached to a tube adapter for 1.5-2 mL tubes (10 mm) for 10 minutes prior being centrifuged at 8,000 rpm for 5 minutes. Supernatants were pipetted in 0.2 mL amber vials and was quantified by reverse phase-HPLC. Analysis was conducted on Onyx Monolithic C18 column (4.6 mm×10+100 mm, 5 μm pore size) with a gradient method (Table 13) using an Agilent 1200 Series HPLC system (Agilent Technologies, Cheadle, UK). […] Injection volume was 40 μL, and the detection was performed at 220 nm and 280 nm.

[5] = In vivo pharmacokinetic study, intravenous; conditions: mice
Procedure: as §1

In the case of `CCCCCCCCCCCCCCCC(=O)Oc1ccc(C[C@H](NC(=O)[C@H](CO)NC(=O)[C@H](Cc2c[nH]c3ccccc23)NC(=O)[C@H](Cc2c[nH]cn2)NC(=O)[C@@H](N)CCC(=O)O)C(=O)NCC(=O)N[C@@H](CC(C)C)C(=O)N[C@@H](CCCNC(=N)N)C(=O)N2CCC[C@H]2C(=O)NCC(N)=O)cc1` [TPGnRH, Tyrosine (O-Palmitoyl)-Glu-GnRH], the Isoelectric point [1] is reported as 6.28±0.51, the “CAC (self-assembly into aggregates)” value [2] is reported as 7 µM and the “temperatures at which nanofibers are physically stable” value [3] is reported as less than 40 °C. For the same molecule, the IC50 [4] was roughly 200 µM, the “Binding Probability of TPGnRH nanofiber tip to U-87 MG cells” value (GnRH-R on U-87 MG cells; after pre-incubation with the free ligand named as label (antibody 1 μg mL^−1, peptides 50 μg mL^−1)) was 4.5% and the “Binding Probability of TPGnRH nanofiber tip to U-87 MG cells” value (GnRH-R on U-87 MG cells; before addition of the free ligand named as label (no pre-incubation)) was 14.7%. The tissue level at time at 5 min (in vivo; brain) was 3080 ± 1010 ng/g, the tissue level at time at 1 h (in vivo; brain) was 3470 ± 80 ng/g and the level at 5 min (in vivo; plasma) was 545 ± 342 µg/mL. For the same molecule, the level at 1 h (in vivo; plasma) was 45.6 ± 10.1 µg/mL, the tolerability ([5]; intravenous 35 mg kg^−1, no immediate signs of toxicity, no gross alterations in liver, spleen, lungs, kidneys) was “well tolerated” and the dose in blood ([5]; intravenous, after 1 hour) was ~6 % of dose.
